For one data set, the system named is B16-F10 melanoma cells. The experiment in a line: Total melanin content assay. The class given is cell-based, Mus musculus (mouse). The note with it: Mus musculus, B16-F10, 72 h, relative to control, read-out: % Melanin Content. On the procedure: Mus musculus (mouse) melanoma cell line, B16-F10 (ATCC® Number: CRL-6475™, Manassas, VA, USA), was cultured in complete Dulbecco′s Modified Eagle′s Medium (DMEM, phenol red-free medium) containing 10% fetal bovine serum, 25 mM glucose, 4 mM L-glutamine, 1 mM sodium pyruvate, 10 μg/mL penicillin, and 10 μg/mL streptomycin, at 37 °C, with 5% carbon dioxide (CO2) in a humidified atmosphere.
The total melanin content, produced both extracellularly and intracellularly, was determined as follows: B16-F10 cells were seeded onto a 24-well plate at a concentration of 50,000 cells/0.5 mL/well and were incubated for 24 h, followed by treatment with either the test compounds or the control (0.5% DMSO), and then incubated for 72 h. For extraction, the total produced melanin and 0.5 mL of 2 N NaOH containing 20% DMSO were added directly to the cell culture medium, mixed by pipetting and then incubated at room temperature for 1 h. The lysed cell extract was centrifuged at 13,000× g for 5 min. Finally, the supernatant was transferred to a 96-well plate and the relative melanin content was detected at 405 nm using a micro plate reader. Kojic acid and oxyresveratrol were used as positive controls.

Data set [1] in a line: Cell viability assay (PrestoBlue resazurin).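 Note: mouse B16-F10 melanoma cells exposed to test samples for 72 h, with viability read as fluorescence of resorufin formed when living cells reduce PrestoBlue resazurin.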 The class given is cell-based, Mus musculus (mouse). The note with it: mouse, B16-F10 melanoma cells, 72 h, relative to control, read-out: % Cell Viability.
For data set [2], the target named is mushroom tyrosinase (Agaricus bisporus, UniProt C7FF04). The experiment in a line: Mushroom tyrosinase inhibitory assay (o-diphenolase activity, L-DOPA as substrate).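 Note: enzyme and test sample preincubated 10 min at 25 °C in pH 6.8 phosphate buffer, 50% DMSO vehicle as control, enzyme-free mixture as blank.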 The class given is biochemical.
mushroom tyrosinase (Agaricus bisporus, UniProt C7FF04), sequence (G1K3P4 entry or part of it): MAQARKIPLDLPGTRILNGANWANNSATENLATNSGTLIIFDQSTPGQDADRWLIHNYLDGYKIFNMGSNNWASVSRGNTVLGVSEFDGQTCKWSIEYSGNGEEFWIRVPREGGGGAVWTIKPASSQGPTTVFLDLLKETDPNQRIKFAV
mushroom tyrosinase (Agaricus bisporus, UniProt C7FF04), sequence (C7FF04 2-392): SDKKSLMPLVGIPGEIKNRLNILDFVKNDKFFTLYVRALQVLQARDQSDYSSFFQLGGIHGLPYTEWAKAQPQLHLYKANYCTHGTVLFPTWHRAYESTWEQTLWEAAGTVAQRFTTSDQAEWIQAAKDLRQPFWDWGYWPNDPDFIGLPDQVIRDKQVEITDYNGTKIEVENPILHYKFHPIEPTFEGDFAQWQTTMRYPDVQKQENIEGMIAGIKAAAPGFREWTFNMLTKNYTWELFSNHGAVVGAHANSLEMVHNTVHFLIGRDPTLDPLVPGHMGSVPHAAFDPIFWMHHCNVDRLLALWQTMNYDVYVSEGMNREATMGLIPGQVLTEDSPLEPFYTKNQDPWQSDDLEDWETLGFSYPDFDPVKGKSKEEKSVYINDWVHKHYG
For data set [3], the system named is murine melan-a melanocytes. Further details: method as in PMID 19182387. The note with it: cited from earlier work.
Data set [4] concerns the target mushroom tyrosinase. The note with it: read-out: monophenolase inhibition of mushroom tyrosinase IC50; cited from earlier work.
The target in a further data set is T1, murine tyrosinase (Mus musculus, UniProt P11344).
T1 construct: The cells were lysed by vortex and incubated at 4 °C for 1 h to solubilize the tyrosinase enzyme; endogenous in cells; host or cells: B16-F10 melanoma cells (Triton X-100 lysate, dialyzed)
T1 sequence (P11344 19-533): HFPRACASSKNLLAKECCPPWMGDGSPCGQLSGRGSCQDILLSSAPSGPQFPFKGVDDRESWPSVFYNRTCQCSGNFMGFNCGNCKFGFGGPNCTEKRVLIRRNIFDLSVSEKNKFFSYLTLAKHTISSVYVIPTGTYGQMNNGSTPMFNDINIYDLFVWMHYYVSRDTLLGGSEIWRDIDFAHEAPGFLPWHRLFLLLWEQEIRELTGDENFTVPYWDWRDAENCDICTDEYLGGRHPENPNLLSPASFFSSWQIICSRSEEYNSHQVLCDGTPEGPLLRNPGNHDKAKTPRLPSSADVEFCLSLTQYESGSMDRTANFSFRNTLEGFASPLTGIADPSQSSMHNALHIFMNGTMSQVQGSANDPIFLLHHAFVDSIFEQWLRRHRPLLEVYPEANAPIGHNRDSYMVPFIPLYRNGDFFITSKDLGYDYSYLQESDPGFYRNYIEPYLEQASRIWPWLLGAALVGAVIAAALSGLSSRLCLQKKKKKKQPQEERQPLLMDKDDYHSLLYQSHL
The experiment in a line: Murine tyrosinase inhibitory assay (o-diphenolase activity, crude enzyme from B16-F10 melanoma cells).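 Note: crude tyrosinase taken from lysed, dialyzed B16-F10 cell extract, with the inhibition reaction incubated for 2 h at 37 °C.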 The class given is biochemical. The note with it: 200 μM; L-DOPA substrate; read-out: Murine Tyrosinase Inhibition, % (at 200 μM), symbol.

Data set [5] relates to murine B16-F10 melanoma cells. Further details: method as in PMID 17873839, PMID 14717847, PMID 16794334, PMID 26656314. The note with it: cited from earlier work.
Data set [6] relates to human melanoma cells (MMV II). The arrangement: method as in PMID 25248426. The note with it: cited from earlier work.

The text below walks through data of publication PMC6100075, “Correlation between the Potency of Flavonoids on Mushroom Tyrosinase Inhibitory Activity and Melanin Synthesis in Melanocytes” (Molecules : A Journal of Synthetic Chemistry and Natural …, 2018).

One may read the viability as a read-out of living cells in per cent, often relative to untreated cells. By inhibition is commonly meant the relative decrease from the control value, in per cent. For orientation: IC50 means the point on the concentration scale where inhibition reaches its midpoint.

A value given as a limit tells only on which side of the number the result lay.

As for `COc1ccc(-c2coc3cc(O)ccc3c2=O)cc1O` [Compound 2, Calycosin], in the data set with B16-F10 melanoma cells (15 μM), the activity at 15 µM came to 143 ± 8.2%. The activity at 30 µM in the data set with B16-F10 melanoma cells (30 μM) amounted to 197 ± 6.4%. In addition, in data set [1] (15 μM), the viability at 72 h, 15 µM was found to be 99.1 ± 9.2%. In data set [1] (30 μM), the viability at 72 h, 30 µM worked out at 101 ± 1.9%. The “inhibitory activity on mushroom tyrosinase (in words)” value at mushroom tyrosinase [2] (o-diphenolase, L-DOPA substrate) is “did not show inhibitory activity”. In addition, at mushroom tyrosinase [2] (read-out: Mushroom Tyrosinase Inhibition % Inhibition (at 300 μM)), the inhibition at 300 µM came out at 0%. Also, in data set [3], the “effect on melanin biosynthesis (in words)” value is given as “reduced melanin biosynthesis”. Also, at mushroom tyrosinase [4], the 50% inhibitory concentration (IC50) is 38.4 µM. Besides, on murine tyrosinase, the inhibition at 200 µM is less than 0%.
With `O=c1c(O)c(-c2ccc(O)c(O)c2)oc2cc(O)cc(O)c12` [quercetin], the results for the “effect on melanogenesis (in words)” value in data set [5] and in data set [6] were “stimulate melanogenesis” and “melanogenesis-promoting actions”, respectively.
